Source: patent US20120083505A1, “Use of opioid receptor antagonists for acute treatment of paraphilic arousal states” (priority 2009, published 2012)

Legend:
[1] = system: obsessive sexual desire; details: two cases; regular fixed dosage regimen over a longer period; after several treatments; cited from earlier work
[2] = system: patients with paraphilic patterns of sexual excitation/arousal; assay: Case reports: acute nasal naloxone in two paedophilic patients, self-rated impulse control; format: in vivo, human; details: one or two puffs of nasal spray, 0.2 mg Naloxonhydrochloride per puff
From the text: In the clinical application (two patients with paraphilic patterns of sexual excitation/arousal, both paedophiles, but with individual symptomatology) the following observations were made:
The patient is a person with paedophile inclination towards sexually immature girls (in addition to their predominant orientation towards adult women). In their first marriage they had repeatedly abused the child of their spouse […] (touching the genitals of the child, as well as having themself touched until reaching the climax). These crimes have not yet become known or led to any form of legal prosecution, and this first marriage is divorced since several years. Owing to their job as music teacher the patient was increasingly in contact with girls of the preferred age during the recent two years; the patient was very worried (and this worry was justified) that they might exploit the situation for the sexual abuse of their pupils. In the course of treatment at the Institute for Sexual Medicine of the Charité University Clinic of Berlin the patient has changed their professional field so that they are mainly involved in the treatment of grown-ups. […]

SMILES | frequency of obsessive sexual desire [1] | sexual interest in the child ([2]; patient 1 (marked expression of symptoms)) | sexual interest in child one ([2]; patient 2 (moderate expression of symptoms))
O=C1CC[C@@]2(O)[C@H]3Cc4ccc(O)c5c4[C@@]2(CCN3CC2CC2)C1O5 (stereo partly drawn) [Naltrexon, 17-cyclopropylmethyl-3,14-dihydroxy-4,5-epoxy-morphinan-6-on] | reduction in frequency of obsessive sexual desire could be observed | – | –
C=CCN1CC[C@]23c4c5ccc(O)c4O[C@H]2C(=O)CC[C@@]3(O)[C@H]1C5 [naloxone, 17-allyl-3,14-dihydroxy-4,5-epoxy-morphinan-6-on] | – | sufficient reduction of their sexual interest in the child | reduction of their sexual interest in child one
